# Measured values: the supplement of paper PMC13380429
# How the values were obtained:
# Conditions in all cases: 72 h
# Caco-2 [1] = assay: relative viability EC50 (midpoint between 100% and the lowest measured viability); higher = less toxic
# Calu-3 [2] = assay: as above
# HepG2 [3] = assay: as above
# U2OS [4] = assay: as above
# Vero E6 [5] = assay: as above
# Caco-2 [6] = assay: cell viability relative to DMSO; higher = less toxic
# Calu-3 [7] = assay: as above
# HepG2 [8] = assay: as above
# U2OS [9] = assay: as above
# Vero E6 [10] = assay: as above
# Caco-2 [11] = assay: drug sensitivity score (DSS) for viability; higher = more toxic; extreme values may be limits of the assay
# Calu-3 [12] = assay: as above
# HepG2 [13] = assay: as above
# U2OS [14] = assay: as above
# Vero E6 [15] = assay: as above
Structure (SMILES),relative viability EC50 (Caco-2 [1]) [µM],relative viability EC50 (Calu-3 [2]) [µM],relative viability EC50 (HepG2 [3]) [µM],relative viability EC50 (U2OS [4]) [µM],relative viability EC50 (Vero E6 [5]) [µM],cell viability (Caco-2 [6]; 1 nM) [%],cell viability (Caco-2 [6]; 10 nM) [%],cell viability (Caco-2 [6]; 100 nM) [%],cell viability (Caco-2 [6]; 1000 nM) [%],cell viability (Caco-2 [6]; 10000 nM) [%],cell viability (Calu-3 [7]; 1 nM) [%],cell viability (Calu-3 [7]; 10 nM) [%],cell viability (Calu-3 [7]; 100 nM) [%],cell viability (Calu-3 [7]; 1000 nM) [%],cell viability (Calu-3 [7]; 10000 nM) [%],cell viability (HepG2 [8]; 1 nM) [%],cell viability (HepG2 [8]; 10 nM) [%],cell viability (HepG2 [8]; 100 nM) [%],cell viability (HepG2 [8]; 1000 nM) [%],cell viability (HepG2 [8]; 10000 nM) [%],cell viability (U2OS [9]; 1 nM) [%],cell viability (U2OS [9]; 10 nM) [%],cell viability (U2OS [9]; 100 nM) [%],cell viability (U2OS [9]; 1000 nM) [%],cell viability (U2OS [9]; 10000 nM) [%],cell viability (Vero E6 [10]; 1 nM) [%],cell viability (Vero E6 [10]; 10 nM) [%],cell viability (Vero E6 [10]; 100 nM) [%],cell viability (Vero E6 [10]; 1000 nM) [%],cell viability (Vero E6 [10]; 10000 nM) [%],drug sensitivity score (Caco-2 [11]),drug sensitivity score (Calu-3 [12]),drug sensitivity score (HepG2 [13]),drug sensitivity score (U2OS [14]),drug sensitivity score (Vero E6 [15])
OC[C@H]1O[C@@H](c2ccc(F)c(Cc3cc4ccccc4s3)c2)[C@H](O)[C@@H](O)[C@@H]1O [ipragliflozin-L-proline],> 10,> 10,> 10,> 10,> 10,108,99.8,100,101,100,92.4,108,98,110,100,108,101,105,96.3,111,99.2,98.7,99.4,104,99,110,104,105,99.4,103,0,0,0,0,0
CC(=O)OCC(=O)[C@@]1(O)CC[C@H]2[C@@H]3CCC4=CC(=O)C=C[C@]4(C)[C@@]3(F)[C@@H](O)C[C@@]21C [isoflupredone-acetate],> 10,> 10,> 10,> 10,> 10,104,96.9,97,103,102,92.6,97.2,82.4,93.2,107,102,92.3,102,99.2,104,96.4,98.2,94.5,99.4,105,100,101,96,94.5,107,0,0,0,0,0
CC[C@H](C)[C@H]1O[C@]2(CC[C@@H]1C)C[C@@H]1C[C@@H](C/C=C(\C)[C@@H](O[C@H]3C[C@H](OC)[C@@H](O[C@H]4C[C@H](OC)[C@@H](O)[C@H](C)O4)[C@H](C)O3)[C@@H](C)/C=C/C=C3\CO[C@@H]4[C@H](O)C(C)=C[C@@H](C(=O)O1)[C@]34O)O2 [ivermectin],> 10,> 10,> 10,> 10,> 10,94.7,90.3,94.2,95.8,108,101,107,88.1,97.1,93.6,96.2,98.5,108,107,85,104,95.1,99.4,96.1,93.9,107,103,106,103,87.8,0,0,0.1,0,0
CC(CCc1ccccc1)NCC(O)c1ccc(O)c(C(N)=O)c1 (stereo not given) [labetalol],> 10,> 10,> 10,> 10,> 10,88.3,85.3,89.4,91.2,110,98.7,107,94.8,103,101,105,100,102,90.5,99.6,97.6,105,98.6,101,99.7,97.3,97.2,96.3,92,103,0,0,0,0,0
CC(C)=CCC[C@](C)(O)[C@@H]1CC=C(C)CC1 [levomenol],> 10,> 10,> 10,> 10,> 10,101,103,82.6,110,95.1,97.9,98.2,97.2,94.3,100,99.8,100,116,98.1,106,96.2,100,96.4,104,103,94.6,96.5,99,98.8,108,0,0,0,0,0
N#Cc1cc(NC(=O)C(=O)O)c(Cl)c(NC(=O)C(=O)O)c1 [lodoxamide],> 10,> 10,> 10,> 10,> 10,106,119,99.8,118,128,109,100,92.1,96.4,99.4,102,107,92.7,93.3,93.6,104,102,97.2,102,98.1,101,99.9,98.6,97.8,93.8,0,0,0,0,0
CC1=CC(=O)c2ccccc2C1=O [menadione],> 10,> 10,> 10,> 10,> 10,100,103,100,104,94.2,95.8,104,112,97.9,106,102,100,116,106,99,95.4,101,96.4,99.7,93.1,104,104,99.9,102,95.1,0,0,0,0,0
